Test results: PubChem BioAssay AID328 (DTP/NCI, 2004)
Where “and” joins values, the source holds several entries; their conditions need not be identical. Equal values may be shown once. Toxic doses and inconclusive results are not listed. Starred links: 1 amine or outer side, 2 acyl side, 3 side chain; linkers in the order of their positions; H or OH if unused. Positions of bridges follow the written chain, without caps; N, C: chain ends. Non-standard residues stand in square brackets, D forms with d. Residues, ends and D or L forms follow the SMILES beside them. Chains are numbered I, II in the order given. Actinocin(9to1) = Cc1c2oc3c(C)ccc(C(=O)[*:1])c3nc-2c(C(=O)[*:2])c(N)c1=O; NMeV = CN[CH](C(=O)O)C(C)C; Sar = CNCC(=O)O

Test system: BDF1 mice, P388 leukemia ip, median survival T/C
Experiment: NCI In Vivo Anticancer Drug Screen. Data for tumor model P388 Leukemia (intraperitoneal) in B6D2F1 (BDF1) mice
Details: endpoint: median survival time, higher = longer survival
Method in brief: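 Transplantable tumour in mice; compound vs vehicle dosing; survival scored; ratio of treated to control reported.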

[1] = dose: 50.0 mg/kg/injection, schedule: Q04DX003 (ip), vehicle: other
[2] = dose: 50.0 mg/kg/injection, schedule: Q04DX003 (ip), vehicle: saline with Tween-80
[3] = dose: 100.0 mg/kg/injection, schedule: Q04DX003 (ip), vehicle: saline with Tween-80
[4] = dose: 200.0 mg/kg/injection, schedule: Q04DX003 (ip), vehicle: saline with Tween-80
[5] = dose: 50.0 mg/kg/injection, schedule: Q01DX009 (ip), vehicle: saline with Tween-80
[6] = dose: 100.0 mg/kg/injection, schedule: Q01DX009 (ip), vehicle: saline with Tween-80
[7] = dose: 200.0 mg/kg/injection, schedule: Q01DX009 (ip), vehicle: saline with Tween-80

In the case of `CCCCNC(c1ccc(C=NC(CC)(CO)CO)cc1)C(Br)(Br)Br` (configuration not stated), the T/C [1] is reported as 100 % of control, the T/C (dose: 100.0 mg/kg/injection, schedule: Q04DX003 (ip), vehicle: other) is reported as 100 % of control and the T/C (dose: 200.0 mg/kg/injection, schedule: Q04DX003 (ip), vehicle: other) is reported as 104 % of control.

With `CCC1=C(C[C@H]2NCCc3cc(OC)c(OC)cc32)C[C@H]2c3cc(OC)c(OC)cc3CCN2C1` the T/C (dose: 4.0 mg/kg/injection, schedule: Q04DX003 (ip), vehicle: saline) was 110 % of control, the T/C (dose: 6.7 mg/kg/injection, schedule: Q04DX003 (ip), vehicle: saline with Tween-80) was 113 % of control and the T/C (dose: 15.0 mg/kg/injection, schedule: Q04DX003 (ip), vehicle: saline with Tween-80) was 159 % of control. The T/C (dose: 16.0 mg/kg/injection, schedule: Q04DX003 (ip), vehicle: saline) was 158 % of control, the T/C (dose: 22.0 mg/kg/injection, schedule: Q04DX003 (ip), vehicle: Klucel (hydroxypropylcellulose) (HPC)) was 165 % of control and the T/C (dose: 32.0 mg/kg/injection, schedule: Q04DX003 (ip), vehicle: saline) was 174 % of control. The T/C (dose: 33.0 mg/kg/injection, schedule: Q04DX003 (ip), vehicle: Klucel (hydroxypropylcellulose) (HPC)) was 165 % of control, the T/C (dose: 33.0 mg/kg/injection, schedule: Q04DX003 (ip), vehicle: saline with Tween-80) was 177 % of control and the T/C (dose: 33.0 mg/kg/injection, schedule: Q04DX003 (ip), vehicle: saline) was 154 % of control. For the same compound, the T/C [2] was 195 % of control and the T/C (dose: 75.0 mg/kg/injection, schedule: Q04DX003 (ip), vehicle: saline) was 90 % of control.

In the case of `CN(C)C1=C(N2CC2)C(=O)C(N(C)C)=C(N2CC2)C1=O`, the T/C (dose: 0.25 mg/kg/injection, schedule: Q01DX009 (ip), vehicle: saline) is reported as 87 % of control, the T/C (dose: 0.5 mg/kg/injection, schedule: Q01DX009 (ip), vehicle: saline) is reported as 151 % of control and the T/C (dose: 1.0 mg/kg/injection, schedule: Q01DX009 (ip), vehicle: saline) is reported as 174 % of control.

With `Cc1ccc(C(=O)/C=C/N2CCN(c3ccccc3)CC2)c(C)c1` the T/C [3] was 100 % of control, the T/C [4] was 100 % of control and the T/C (dose: 400.0 mg/kg/injection, schedule: Q04DX003 (ip), vehicle: saline with Tween-80) was 90 % of control.

With `CCCCCCCC[N+](CC)(CC)CCOC(=O)C(C1CCCC1)C1CCCC1` the T/C (dose: 0.9 mg/kg/injection, schedule: Q04DX003 (ip), vehicle: saline) was 90 % of control, the T/C (dose: 1.32 mg/kg/injection, schedule: Q01DX001 (ip), vehicle: saline) was 87 % of control and the T/C (dose: 1.8 mg/kg/injection, schedule: Q04DX003 (ip), vehicle: saline) was 109 % of control. The T/C (dose: 2.65 mg/kg/injection, schedule: Q01DX001 (ip), vehicle: saline) was 100 % of control, the T/C (dose: 3.6 mg/kg/injection, schedule: Q01DX009 (ip), vehicle: saline) was 110 % of control and the T/C (dose: 3.6 mg/kg/injection, schedule: Q04DX003 (ip), vehicle: saline) was 109 % of control. The T/C (dose: 5.3 mg/kg/injection, schedule: Q01DX001 (ip), vehicle: saline) was 91 % of control and the T/C (dose: 5.3 mg/kg/injection, schedule: Q04DX003 (ip), vehicle: saline) was 90 % of control.

`CC1=CC(=O)c2ccccc2C1=O` was tested, and the T/C (dose: 8.8 mg/kg/injection, schedule: Q01DX010 (ip), vehicle: carboxymethylcellulose (CMC)) was 110 % of control, the T/C (dose: 13.3 mg/kg/injection, schedule: Q01DX010 (ip), vehicle: carboxymethylcellulose (CMC)) was 110 % of control and the T/C (dose: 20.0 mg/kg/injection, schedule: Q01DX010 (ip), vehicle: carboxymethylcellulose (CMC)) was 90 % of control. The T/C (dose: 30.0 mg/kg/injection, schedule: Q01DX010 (ip), vehicle: carboxymethylcellulose (CMC)) was 115 % of control.

`CCOC(=O)Nc1cc(NC/C(=N/O)c2ccc(OC)cc2)c([N+](=O)[O-])c(N)n1` was tested, and the T/C (dose: 12.5 mg/kg/injection, schedule: Q01DX001 (ip), vehicle: Klucel (hydroxypropylcellulose) (HPC)) was 93 % of control, the T/C (dose: 25.0 mg/kg/injection, schedule: Q01DX001 (ip), vehicle: Klucel (hydroxypropylcellulose) (HPC)) was 93 % of control and the T/C (dose: 50.0 mg/kg/injection, schedule: Q01DX001 (ip), vehicle: Klucel (hydroxypropylcellulose) (HPC)) was 93 % of control.

`[O-][N+](=Nc1cccc(Cl)c1)c1cccc(Cl)c1` was tested, and the T/C [5] was 93 % of control, the T/C (dose: 66.0 mg/kg/injection, schedule: Q01DX009 (ip), vehicle: saline with Tween-80) was 89 % of control and the T/C [6] was 93 % of control. The T/C (dose: 150.0 mg/kg/injection, schedule: Q01DX009 (ip), vehicle: saline with Tween-80) was 90 % of control and the T/C [7] was 94 % of control.

For `CCN(CC)CCCC(C)Nc1ccnc2cc(Cl)cnc12` (configuration not stated) (tested in a mixture with another compound), the T/C [5] was 107 % of control, the T/C [6] was 114 % of control and the T/C [7] was 98 % of control.

`O=C(/C=C/c1ccc(OCc2ccccc2)cc1)c1ccc(Cl)cc1Cl` was tested, and the T/C [5] was 91 % of control, the T/C [6] was 89 % of control and the T/C [7] was 89 % of control.

For `CC(=O)/C(C)=C/C=O`, the T/C (dose: 0.25 mg/kg/injection, schedule: Q01DX009 (ip), vehicle: water) was 116 % of control, the T/C (dose: 0.5 mg/kg/injection, schedule: Q01DX009 (ip), vehicle: water) was 89 % of control and 96 % of control and 116 % of control and the T/C (dose: 1.0 mg/kg/injection, schedule: Q01DX009 (ip), vehicle: water) was 97 % of control and 103 % of control and 116 % of control. The T/C (dose: 2.0 mg/kg/injection, schedule: Q01DX009 (ip), vehicle: water) was 94 % of control and 97 % of control, the T/C (dose: 4.0 mg/kg/injection, schedule: Q01DX009 (ip), vehicle: water) was 96 % of control and 97 % of control and 116 % of control and the T/C (dose: 8.0 mg/kg/injection, schedule: Q01DX009 (ip), vehicle: water) was 103 % of control.

`CCCCNC(C)(C)C(SC(C)=O)c1ccc(Cl)cc1` (configuration not stated) was tested, and the T/C [3] was 108 % of control and the T/C [4] was 112 % of control.

In the case of `O=C(Nc1ccc(NC(=O)Nc2cccc(C3=NCCN3)c2)cc1)Nc1cccc(C2=NCCN2)c1`, the T/C (dose: 60.0 mg/kg/injection, schedule: Q01DX010 (ip), vehicle: saline) is reported as 165 % of control and 190 % of control, the T/C (dose: 120.0 mg/kg/injection, schedule: Q01DX010 (ip), vehicle: saline) is reported as 160 % of control and 175 % of control and the T/C (dose: 240.0 mg/kg/injection, schedule: Q01DX010 (ip), vehicle: saline) is reported as 175 % of control and 190 % of control. For the same compound, the T/C (dose: 480.0 mg/kg/injection, schedule: Q01DX010 (ip), vehicle: saline) was 250 % of control and 300 % of control.

For `Cc1ccc2c(/C=C/c3ccc(N(C)C)cc3)ccnc2c1C`, the T/C [6] was 120 % of control.

With `N#CC(/C=C/c1ccccc1)Nc1ccccc1C(N)=O` (configuration not stated) the T/C (dose: 25.0 mg/kg/injection, schedule: Q01DX001 (ip), vehicle: saline with Tween-80) was 109 % of control, the T/C (dose: 50.0 mg/kg/injection, schedule: Q01DX001 (ip), vehicle: saline with Tween-80) was 104 % of control and the T/C (dose: 100.0 mg/kg/injection, schedule: Q01DX001 (ip), vehicle: saline with Tween-80) was 100 % of control.

For `Cc1c2oc3c(C)ccc(C(=O)NC4C(=O)NC(C(C)C)C(=O)N(C)CC(=O)N(C)CC(=O)N(C)C(C(C)C)C(=O)OC4C)c3nc-2c(C(=O)NC2C(=O)NC(C(C)C)C(=O)N(C)CC(=O)N(C)CC(=O)N(C)C(C(C)C)C(=O)OC2C)c(N)c1=O` (configuration not stated) (I: TV[Sar][Sar][NMeV] / II: TV[Sar][Sar][NMeV]; ester I:1-I:C, II:1-II:C; linker I:N-II:N via Actinocin(9to1); configuration not given here), the T/C (dose: 125.0 micrograms/kg/injection, schedule: Q01DX009 (ip), vehicle: saline + alcohol) was 190 % of control, the T/C (dose: 250.0 micrograms/kg/injection, schedule: Q01DX009 (ip), vehicle: saline + alcohol) was 233 % of control and the T/C (dose: 500.0 micrograms/kg/injection, schedule: Q01DX009 (ip), vehicle: saline + alcohol) was 239 % of control. The T/C (dose: 750.0 micrograms/kg/injection, schedule: Q04DX003 (ip), vehicle: saline + alcohol) was 218 % of control, the T/C (dose: 1500.0 micrograms/kg/injection, schedule: Q04DX003 (ip), vehicle: saline + alcohol) was 239 % of control and 166 % of control and the T/C (dose: 3000.0 micrograms/kg/injection, schedule: Q04DX003 (ip), vehicle: saline + alcohol) was 175 % of control.

`NC(=S)N/N=C/c1nccc2ccccc12` was tested, and the T/C (dose: 18.8 mg/kg/injection, schedule: Q01DX009 (ip), vehicle: saline with Tween-80) was 158 % of control, the T/C (dose: 37.5 mg/kg/injection, schedule: Q01DX009 (ip), vehicle: saline with Tween-80) was 185 % of control and the T/C (dose: 75.0 mg/kg/injection, schedule: Q01DX009 (ip), vehicle: saline with Tween-80) was 235 % of control. For the same compound, the T/C (dose: 300.0 mg/kg/injection, schedule: Q01DX009 (ip), vehicle: saline with Tween-80) was 91 % of control.

With `CC(NC=O)C(=O)NC(CC(=O)O)C(=O)O` (configuration not stated) the T/C (dose: 50.0 mg/kg/injection, schedule: Q01DX005 (ip), vehicle: saline) was 95 % of control, the T/C (dose: 100.0 mg/kg/injection, schedule: Q01DX005 (ip), vehicle: saline) was 93 % of control and the T/C (dose: 200.0 mg/kg/injection, schedule: Q01DX005 (ip), vehicle: saline) was 89 % of control.

In the case of `O=[N+]([O-])/C=C/c1c(Cl)cccc1Cl`, the T/C [1] is reported as 122 % of control.

In the case of `Nc1nc(C=O)c(CCc2ccccc2)c(=O)[nH]1`, the T/C [2] is reported as 113 % of control.
